Reference: paper PMC6476926, “Dichloro-Phenyl-Benzotriazoles: A New Selective Class of Human Respiratory Syncytial Virus Entry Inhibitors” (Frontiers in Chemistry, 2019)

Key:
[1] = system: Reo-1; assay: microbe, parasite or virus in culture; type: cell-based, Reovirus type-1 (Reo-1); conditions: Reovirus sp., BHK, read-out: EC50 Reo-1
[2] = system: HIV-1IIIB; assay: microbe, parasite or virus in culture; type: cell-based, Human Immunodeficiency Virus type-1 (HIV-1); conditions: Human immunodeficiency virus 1, MT4, read-out: EC50 HIV-1IIIB
[3] = system: RSV; assay: microbe, parasite or virus in culture; type: cell-based, Human Respiratory Syncytial Virus (RSV) strain A2; conditions: human respiratory syncytial virus, Vero 76, read-out: EC50 RSV
[4] = system: YFV; assay: microbe, parasite or virus in culture; type: cell-based; conditions: Yellow fever virus, BHK, read-out: EC50 YFV
[5] = Cytotoxicity, MTT method, Vero-76 cells; conditions: African green monkey (Cercopithecus aethiops)
[6] = system: Sb-1, VSV, VV, HSV-1; assay: organism not typed; type: cell-based; conditions: Vero 76, read-out: EC50 Sb-1, VSV, VV, HSV-1
[7] = Cytotoxicity, MTT method, MT-4 cells; conditions: human
[8] = Cytotoxicity, MTT method, BHK cells; conditions: Syrian hamster (Mesocricetus auratus)
[9] = in vitro; conditions: cattle (Bos taurus)
[10] = system: CV-B5; assay: microbe, parasite or virus in culture; type: cell-based, Human Enterovirus B [coxsackie type B5 (CV-B5)]; conditions: Enterovirus B, CVB5, Vero 76, read-out: EC50 CV-B5
[11] = system: BVDV; assay: microbe, parasite or virus in culture; type: cell-based; conditions: Bovine viral diarrhea virus isolates and strains, MDBK, read-out: EC50 BVDV

CCNC(=O)Nc1ccc(-n2nc3cc(Cl)c(Cl)cc3n2)cc1 [10a, 1-[4-(5,6-dichloro-2H-benzo[d][1,2,3]triazol-2-yl)phenyl]-3-ethylurea]
EC50 [1]: > 100 µM
EC50 [2]: > 100 µM
EC50 [3]: > 100 µM
EC50 [4]: > 100 µM
CC50 at 5 days [5]: > 100 µM
EC50 [6]: > 100 µM
CC50 [7]: > 100 µM
CC50 [8]: > 100 µM
melting point: > 290 °C
CC50 [9]: > 100 µM
EC50 [10]: > 100 µM
EC50 [11]: > 100 µM

O=C(Nc1ccc(-n2nc3cc(Cl)c(Cl)cc3n2)cc1)c1ccc(C(F)(F)F)cc1 [8g, N-[4-(5,6-dichloro-2H-benzo[d][1,2,3]triazol-2-yl)phenyl]-4-(trifluoromethyl)benzamide]
EC50 [1]: > 100 µM
EC50 [2]: > 100 µM
EC50 [3]: 50 µM
EC50 [4]: > 100 µM
CC50 at 5 days [5]: > 100 µM
EC50 [6]: > 100 µM
CC50 [7]: > 100 µM
CC50 [8]: > 100 µM
melting point: 210 to 212 °C
CC50 [9]: > 100 µM
EC50 [10]: > 100 µM
EC50 [11]: 28 µM

N#Cc1ccc(C(=O)Nc2ccc(-n3nnc4cc(Cl)c(Cl)cc43)cc2)cc1 [7h, N-[4-(5,6-dichloro-1H-benzo[d][1,2,3]triazol-1-yl)phenyl] 4-cyanobenzamide]
EC50 [1]: > 100 µM
EC50 [2]: > 100 µM
EC50 [3]: 11 µM
EC50 [4]: > 100 µM
CC50 at 5 days [5]: > 100 µM
EC50 [6]: > 100 µM
CC50 [7]: > 100 µM
CC50 [8]: > 100 µM
melting point: 227 to 229 °C
CC50 [9]: > 100 µM
EC50 [10]: > 100 µM
EC50 [11]: > 100 µM

CCCCNC(=O)Nc1ccc(-n2nc3cc(Cl)c(Cl)cc3n2)cc1 [10c, 1-[4-(5,6-dichloro-2H-benzo[d][1,2,3]triazol-2-yl)phenyl]-3-butylurea]
EC50 [1]: > 100 µM
EC50 [2]: > 100 µM
EC50 [3]: > 100 µM
EC50 [4]: > 100 µM
CC50 [5]: 90 µM
CC50 at 5 days [5]: > 100 µM
EC50 [6]: > 95 µM
CC50 [7]: > 100 µM
CC50 [8]: > 100 µM
melting point: > 300 °C
CC50 [9]: > 100 µM
EC50 [10]: > 95 µM
EC50 [11]: > 100 µM

O=C(Nc1ccc(-n2nc3cc(Cl)c(Cl)cc3n2)cc1)c1ccc([N+](=O)[O-])cc1 [8e, N-[4-(5,6-dichloro-2H-benzo[d][1,2,3]triazol-2-yl)phenyl]-4-nitrobenzamide]
EC50 [1]: > 68 µM
EC50 [2]: > 100 µM
EC50 [3]: 33 µM
EC50 [4]: > 68 µM
CC50 at 5 days [5]: > 100 µM
EC50 [6]: > 100 µM
CC50 [7]: > 100 µM
CC50 [8]: 68 µM
melting point: > 297 °C
CC50 [9]: > 100 µM
EC50 [10]: > 100 µM
EC50 [11]: 4 µM

O=C(Nc1ccc(-n2nc3cc(Cl)c(Cl)cc3n2)cc1)c1ccc(Cl)cc1 [8f, N-[4-(5,6-dichloro-2H-benzo[d][1,2,3]triazol-2-yl)PHENYL] 4-chlorobenzamide]
EC50 [1]: > 100 µM
EC50 [2]: > 100 µM
EC50 [3]: 20 µM
EC50 [4]: > 100 µM
CC50 at 5 days [5]: 80 µM
EC50 [6]: > 100 µM
CC50 [7]: > 100 µM
CC50 [8]: > 100 µM
melting point: 268 to 270 °C
CC50 [9]: > 100 µM
EC50 [10]: > 100 µM
EC50 [11]: 60 µM

CCC(=O)Nc1ccc(-n2nnc3cc(Cl)c(Cl)cc32)cc1 [5b, N-[4-(5,6-dichloro-1H-benzo[d][1,2,3]triazol-1-yl)phenyl]propionamide]
EC50 [1]: > 54 µM
EC50 [2]: > 28 µM
EC50 [3]: 4 µM
EC50 [4]: > 54 µM
CC50 at 5 days [5]: 30 µM
EC50 [6]: > 30 µM
CC50 [7]: 28 µM
CC50 [8]: 54 µM
melting point: 175 to 177 °C
CC50 [9]: > 100 µM
EC50 [10]: > 30 µM
EC50 [11]: > 100 µM

O=C(Nc1ccc(-n2nc3cc(Cl)c(Cl)cc3n2)cc1)Nc1cccc2ccccc12 [10k, 1-[4-(5,6-dichloro-2H-benzo[d][1,2,3]triazol-2-yl)phenyl]-3-naphtylurea]
EC50 [1]: > 100 µM
EC50 [2]: > 100 µM
EC50 [3]: > 100 µM
EC50 [4]: > 100 µM
CC50 at 5 days [5]: > 100 µM
EC50 [6]: > 100 µM
CC50 [7]: > 100 µM
CC50 [8]: > 100 µM
melting point: > 290 °C
CC50 [9]: > 100 µM
EC50 [10]: > 100 µM
EC50 [11]: > 100 µM

O=C(NCc1ccccc1)Nc1ccc(-n2nc3cc(Cl)c(Cl)cc3n2)cc1 [10j, 1-[4-(5,6-dichloro-2H-benzo[d][1,2,3]triazol-2-yl)phenyl]-3-benzylurea]
EC50 [1]: > 100 µM
EC50 [2]: > 100 µM
EC50 [3]: > 100 µM
EC50 [4]: > 100 µM
CC50 at 5 days [5]: > 100 µM
EC50 [6]: > 100 µM
CC50 [7]: > 100 µM
CC50 [8]: > 100 µM
melting point: > 290 °C
CC50 [9]: > 100 µM
EC50 [10]: > 100 µM
EC50 [11]: > 100 µM

Cc1ccc(C(=O)Nc2ccc(-n3nnc4cc(Cl)c(Cl)cc43)cc2)cc1 [7b, N-[4-(5,6-dichloro-1H-benzo[d][1,2,3]triazol-1-yl)phenyl]-4-methylbenzamide]
EC50 [1]: > 100 µM
EC50 [2]: > 100 µM
EC50 [3]: > 100 µM
EC50 [4]: > 100 µM
CC50 at 5 days [5]: > 100 µM
EC50 [6]: > 100 µM
CC50 [7]: > 100 µM
CC50 [8]: > 100 µM
melting point: 226 to 228 °C
CC50 [9]: > 100 µM
EC50 [10]: > 100 µM
EC50 [11]: > 100 µM

O=C(Nc1ccc(-n2nnc3cc(Cl)c(Cl)cc32)cc1)c1ccc([N+](=O)[O-])cc1 [7e, N-[4-(5,6-dichloro-1H-benzo[d][1,2,3]triazol-1-yl)phenyl]-4-nitrobenzamide]
EC50 [1]: > 96 µM
EC50 [2]: > 100 µM
EC50 [3]: 13 µM
EC50 [4]: > 96 µM
CC50 at 5 days [5]: > 100 µM
EC50 [6]: > 100 µM
CC50 [7]: > 100 µM
CC50 [8]: 96 µM
melting point: 238 to 240 °C
CC50 [9]: > 100 µM
EC50 [10]: > 100 µM
EC50 [11]: > 100 µM

CC(=O)N(C(C)=O)c1ccc(-n2nc3cc(Cl)c(Cl)cc3n2)cc1 [6d, N-acetyl-N-[4-(5,6-dichloro-2H-benzo[d][1,2,3]triazol-2-yl)phenyl]acetamide]
EC50 [1]: > 100 µM
EC50 [2]: > 33 µM
EC50 [3]: 40 µM
EC50 [4]: > 72 µM
CC50 at 5 days [5]: > 100 µM
EC50 [6]: > 100 µM
CC50 [7]: 33 µM
CC50 [8]: 72 µM
melting point: 224 to 226 °C
CC50 [9]: 100 µM
EC50 [10]: > 100 µM
EC50 [11]: > 100 µM

Cc1ccc(C(=O)Nc2ccc(-n3nc4cc(Cl)c(Cl)cc4n3)cc2)cc1 [8b, N-[4-(5,6-dichloro-2H-benzo[d][1,2,3]triazol-2-yl)phenyl]-4-methylbenzamide]
EC50 [1]: > 100 µM
EC50 [2]: > 100 µM
EC50 [3]: 27 µM
EC50 [4]: 73 µM
CC50 at 5 days [5]: > 100 µM
EC50 [6]: > 100 µM
CC50 [7]: > 100 µM
CC50 [8]: > 100 µM
melting point: 210 to 213 °C
CC50 [9]: > 100 µM
EC50 [10]: > 100 µM
EC50 [11]: > 100 µM
